The text below walks through data of US10752900B2, “Oligonucleotides for modulating gene expression and uses thereof” (BIOGENERA S.P.A., priority 2012, dated 2020).

Data set [1] relates to MYCN gene. The experiment in a line: QT-PCR, MYCN mRNA in WERI-Rb1 cells. In kind it is cell-based. Particulars: Table 6. On the procedure: (§1) For the purpose of assessing the ability of the oligonucleotides of the present invention to modulate the expression of the target genes, their ability to reduce the quantity of messenger RNA was analyzed using the Real-Time PCR technique. For this purpose, use was made of 24-well plates, which were seeded with 5.0×10^4 cells with 0.3 ml of OPTI-MEM (GIBCO BRL) medium, 4% FBS and 2 mM L-glutammine (experiments in triplicate) per well. The cells were incubated for 24 hours at 37° C., in an atmosphere containing 5% CO2 to permit adherence to the base of the wells. For each well, the oligonucleotides were analyzed at the following final concentrations: • the antisense oligonucleotides siRNA and siRNA gapmer (i.e. the oligonucleotides containing one or more monomers of chemically modified nucleic acids at the 3' or 5' end, while in the central portion they have monomers of nucleic acids that have not been modified or have been modified at the level of the phosphodiester bond as a phosphorothioate bond) were used at 200 nM; • the antisense oligonucleotides containing phosphorothioate DNA monomers, the RNA antigene oligonucleotides (agRNA) and the oligonucleotides containing DNA monomers and LNA monomers were used at 10 μM; • the morpholino oligonucleotides were used at a concentration of 1 μM, and • the PNA oligonucleotides were administered at a concentration of 1 μM. The cells were treated with the oligonucleotides, adding FBS up to 4% 6 hours after administration of the same. After 24 hours the total RNA was extracted from each well and purified using the RNeasy Mini Kit (QIAGEN). As a control, use was made of the same cell lines as listed above treated with sterile water instead of oligonucleotides. Each RNA sample was quantified (in duplicate) using a NanoDrop ND-1000 spectrophotometer (NanoDrop Technologies). The first strand of cDNA was produced using the cDNA Synthesis Kit for RT-PCR (Roche). For the cDNA synthesis reaction a total of 1 μg of RNA was used. For the real-time PCR, 10 ng of cDNA in a final volume of 20 μl was used with SYBR Green Master Mix 2× (Applied Biosystems) (3 identical experiments were conducted in triplicate). Two housekeeping genes were used as positive controls: GAPDH and beta-actin (ACTB). The conditions of the QT-PCR reaction were: 10 min at 95° C., 20 sec at 95° C., and 30 sec at 60° C., for 50 cycles. The PNAs having SEQ ID NO: 1-12 were also tested on different cell lines which overexpress MYCN (Kelly, SKNBE2c, RH30, […] 1 and H69). The results are shown in Table 6 and confirm the selectivity and specificity of the inhibition effect of the PNAs on the product of protein translation of the MYCN gene.

Data set [2] concerns MYCN gene. The experiment in a line: QT-PCR, MYCN mRNA in WiT49 cells. The format is cell-based, human. The following applies: Table 6. The protocol: as §1, with “(QIAGEN). Assays were performed on 8 cell lines obtained from 5 different human tumours which are correlated with MYCN expression, i.e.: • as a neuroblastoma model use was made of the cell lines Kelly, IMR-32 (where the MYCN gene is amplified and superexpressed) and SKNBE2c and LAN1 (where the MYCN gene is amplified and superexpressed and the p53 gene is mutated); • as a rabdomiosarcoma model use was made of the cell line RH30, where the MYCN gene is amplified and superexpressed; • as a Wilms' tumour model use was made of the cell line WiT49, where the MYCN gene is amplified and superexpressed; • as a retinoblastoma model use was made of the cell line Y79, where the MYCN gene is amplified and superexpressed; and • as a model of small cell lung cancer use was made of the cell line H69 where the MYCN gene is amplified and superexpressed.” for “(QIAGEN).”

The next data set concerns Phoenix. The experiment in a line: Cellular proliferation, Phoenix fibroblastoid-type cells. In kind it is cell-based. Particulars: Table 1; cells that do not express MYCN. The protocol:
Cell viability was assessed by means of an ATP-Lite assay (Luminescence ATP Detection Assay System, PerkinElmer) and is reported as the ratio between the average signal of the treated wells compared to the average value of the wells of untreated control cells. The cells were processed following the instructions provided with the kit.
Moreover, the oligonucleotides having SEQ ID NO 1-23 were administered in lines of fibroblastoid-type cells (NIH-3T3 and Phoenix) and the results are shown in Table 1 (last two columns). […]

As to “SEQ ID NO: 1: PNA ATGCCGGGCATGATCT against MYCN; subject of patent EP 1618195, control sequence used for comparison (all peptide nucleic acid (PNA)) [reference compound]”, in the data set on MYCN gene [1], the “WERI-Rb1 % mRNA” value was found to be 31%. Further, in the data set with MYCN gene [2], the “WiT49 % mRNA” value stood at 62%. In the data set with Phoenix, the “Phoenix prolif. (%)” value was determined as 100%.
The corresponding values for “SEQ ID NO: 10: PNA antigene oligonucleotide CGGCCGCGGGCCGCCA directed against MYCN (PNA backbone, chemistry not fully specified)” are 30%, 60% and 100%.
“SEQ ID NO: 12: PNA antigene oligonucleotide TGTCTGGACGCGCTGG directed against MYCN (all peptide nucleic acid (PNA))”: the “WERI-Rb1 % mRNA” value in the data set with MYCN gene [1] turned out to be 30%. The “WiT49 % mRNA” value in the data set with MYCN gene [2] is 62%. Further, the “Phoenix prolif. (%)” value in the data set on Phoenix is recorded as 100%.
Taken in the same sequence, the figures for “SEQ ID NO: 6: PNA antigene oligonucleotide TGGACGCGCTGGGTGG directed against MYCN (PNA backbone, chemistry not fully specified)” were 37%, 68% and 100%.
In the case of “SEQ ID NO: 8: PNA antigene oligonucleotide GTCTGGACGCGCTGGG directed against MYCN (all peptide nucleic acid (PNA))”, the “WERI-Rb1 % mRNA” value with MYCN gene [1] stood at 40%. Moreover, the “WiT49 % mRNA” value with MYCN gene [2] was determined as 72%. Further, the “Phoenix prolif. (%)” value in the data set on Phoenix turned out to be 100%.
The corresponding values for “SEQ ID NO: 2: PNA antigene oligonucleotide GGGTGGATGCGGGGGG directed against MYCN (PNA backbone, chemistry not fully specified)” are 46%, 78% and 100%.
Taken in the same sequence, the figures for “SEQ ID NO: 7: PNA antigene oligonucleotide CGCGCTGGGTGGATGC directed against MYCN (all peptide nucleic acid (PNA))” were 38%, 70% and 100%.
The corresponding values for “SEQ ID NO: 3: PNA antigene oligonucleotide GATGCGGGGGGCTCCT directed against MYCN (PNA backbone, chemistry not fully specified)” are 43%, 75% and 100%.
On to “SEQ ID NO: 11: PNA antigene oligonucleotide GGGAACTGTGTTGGAG directed against MYCN (PNA backbone, chemistry not fully specified)”, for which, in the data set on MYCN gene [1], the “WERI-Rb1 % mRNA” value was 30%. Further, the “WiT49 % mRNA” value in the data set on MYCN gene [2] stood at 60%. For the same substance, in the data set with Phoenix, the “Phoenix prolif. (%)” value worked out at 100%.
Taken in the same sequence, the figures for “SEQ ID NO: 4: PNA antigene oligonucleotide GTCGGCGGGAGGTAAG directed against MYCN (PNA backbone, chemistry not fully specified)” were 41%, 73% and 100%.
Taken in the same sequence, the figures for “SEQ ID NO: 9: PNA antigene oligonucleotide CCCTGCAGTCGGCGGG directed against MYCN (all peptide nucleic acid (PNA))” were 36%, 66% and 100%.
Regarding “SEQ ID NO: 5: PNA antigene oligonucleotide GCTGGGTGGATGCGGG directed against MYCN (PNA backbone, chemistry not fully specified)”, in the data set on MYCN gene [1], the “WERI-Rb1 % mRNA” value is listed as 38%. The “WiT49 % mRNA” value in the data set on MYCN gene [2] was found to be 69%. In addition, the “Phoenix prolif. (%)” value in the data set on Phoenix is 100%.
